Measurements: PubChem BioAssay (NCI)
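Tested at 5 concentrations; 48 h exposure; 96-well plates; endpoints linearly interpolated, else capped at highest concentration. TGI: total growth inhibition.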

Legend:
Assay in all cases: NCI anticancer screen, dose series, 48 h
[1] = tested on: CAKI-1 renal
[2] = tested on: CCRF-CEM leukemia
[3] = tested on: HCC-2998 colon
[4] = tested on: HCT-116 colon
[5] = tested on: HCT-15 colon
[6] = tested on: NCI-H23 lung
[7] = tested on: OVCAR-3 ovarian
[8] = tested on: OVCAR-4 ovarian
[9] = tested on: SF-268 CNS
[10] = tested on: SF-295 CNS
[11] = tested on: SK-MEL-2 melanoma
[12] = tested on: SNB-19 CNS
[13] = tested on: SW-620 colon
[14] = tested on: UACC-62 melanoma
[15] = tested on: UO-31 renal
[16] = tested on: K-562 leukemia
[17] = tested on: A498 renal

Compound: O=c1[nH]c2nc3ccccc3c(=O)n2/c1=C/c1ccccc1
- TGI [1]: > 100 µM
- TGI [2]: > 100 µM
- TGI [3]: > 100 µM
- TGI [4]: > 100 µM
- TGI [5]: > 100 µM
- TGI [6]: > 100 µM
- TGI [7]: > 100 µM
- TGI [8]: > 100 µM
- TGI [9]: > 100 µM
- TGI [10]: > 100 µM
- TGI [11]: > 100 µM
- TGI [12]: 55.9 µM
- TGI [13]: 47.6 µM
- TGI [14]: > 100 µM
- TGI [15]: > 100 µM

Compound: O=S(Cc1ccccc1)c1ccccc1Cn1cccc1 (stereo not given)
- TGI [1]: > 100 µM
- TGI [2]: > 100 µM
- TGI [3]: > 100 µM
- TGI [4]: > 100 µM
- TGI [5]: > 100 µM
- TGI [16]: > 100 µM
- TGI [6]: > 100 µM
- TGI [7]: > 100 µM
- TGI [8]: > 100 µM
- TGI [9]: > 100 µM
- TGI [10]: > 100 µM
- TGI [11]: > 100 µM
- TGI [12]: > 100 µM
- TGI [13]: > 100 µM
- TGI [14]: > 100 µM
- TGI [15]: > 100 µM

Compound: CC1(O)CC2C(CC1SC1CC3C(CC1(C)O)C3(C)C)C2(C)C (stereo not given)
- TGI [2]: 95.9 µM
- TGI [3]: > 100 µM
- TGI [4]: > 100 µM
- TGI [5]: > 100 µM
- TGI [16]: > 100 µM
- TGI [6]: > 100 µM
- TGI [7]: > 100 µM
- TGI [8]: 94.1 µM
- TGI [9]: > 100 µM
- TGI [10]: > 100 µM
- TGI [11]: > 100 µM
- TGI [15]: > 100 µM

Compound: Cc1nc(C(N)=S)sc1C(=O)CC(=O)C(=O)Nc1ccc(Br)cc1
- TGI [17]: > 100 µM
- TGI [1]: > 100 µM
- TGI [2]: > 100 µM
- TGI [4]: > 100 µM
- TGI [5]: > 100 µM
- TGI [16]: > 100 µM
- TGI [6]: > 100 µM
- TGI [7]: > 100 µM
- TGI [8]: > 100 µM
- TGI [9]: > 100 µM
- TGI [10]: > 100 µM
- TGI [11]: > 100 µM
- TGI [13]: > 100 µM
- TGI [14]: > 100 µM
- TGI [15]: > 100 µM

Compound: Cc1cccc2c(N)c3cccc(C(=O)NCC[N+](C)(C)Cc4ccccc4[N+](=O)[O-])c3nc12
- TGI [17]: > 29.3 µM
- TGI [1]: > 100 µM
- TGI [3]: > 25.9 µM
- TGI [4]: > 100 µM
- TGI [5]: > 100 µM
- TGI [16]: > 31.8 µM
- TGI [6]: 14.1 µM
- TGI [7]: > 91.4 µM
- TGI [8]: > 34.5 µM
- TGI [9]: > 35.2 µM
- TGI [10]: > 50.1 µM
- TGI [11]: > 54.6 µM
- TGI [12]: > 100 µM
- TGI [13]: > 53 µM
- TGI [14]: > 19.7 µM
- TGI [15]: > 28.3 µM

Compound: Brc1ccc(-c2[nH]c3ccccc3c2/C=N\Nc2ccc(-c3nc4ccccc4[nH]3)cc2)cc1
- TGI [1]: > 100 µM
- TGI [2]: > 68.6 µM
- TGI [3]: < 0.01 µM
- TGI [5]: > 37 µM
- TGI [16]: > 39.2 µM
- TGI [6]: > 46.6 µM
- TGI [7]: > 100 µM
- TGI [8]: > 100 µM
- TGI [9]: 6.28 µM
- TGI [10]: > 100 µM
- TGI [11]: > 35.4 µM
- TGI [12]: > 100 µM
- TGI [13]: > 49.5 µM
- TGI [14]: > 100 µM
- TGI [15]: > 100 µM

Compound: CCOC(=O)C1CCCc2sc(N)c(C#N)c21 (stereo not given)
- TGI [17]: > 100 µM
- TGI [3]: > 100 µM
- TGI [4]: > 100 µM
- TGI [5]: > 100 µM
- TGI [16]: > 100 µM
- TGI [6]: > 100 µM
- TGI [11]: > 100 µM
- TGI [12]: > 100 µM
- TGI [13]: > 100 µM
- TGI [14]: > 100 µM
- TGI [15]: > 100 µM

Compound: CC1(C)CN(CC(=O)O)CC(Cc2ccc(OCC(=O)O)cc2)N(CC(=O)O)CC(C)(C)SS1 (stereo not given)
- TGI [17]: > 100 µM
- TGI [1]: > 100 µM
- TGI [3]: > 100 µM
- TGI [4]: > 100 µM
- TGI [5]: > 100 µM
- TGI [16]: > 100 µM
- TGI [6]: > 100 µM
- TGI [7]: > 100 µM
- TGI [8]: > 100 µM
- TGI [9]: > 100 µM
- TGI [10]: > 100 µM
- TGI [11]: > 100 µM
- TGI [12]: > 100 µM
- TGI [13]: > 100 µM
- TGI [14]: > 100 µM
- TGI [15]: > 100 µM

Compound: Nc1ccc(Oc2ccc(C34CC5CC(C3)CC(c3ccc(Oc6ccc(N)cc6C(F)(F)F)cc3)(C5)C4)cc2)c(C(F)(F)F)c1
- TGI [17]: 35.2 µM
- TGI [1]: > 100 µM
- TGI [2]: > 100 µM
- TGI [4]: > 100 µM
- TGI [5]: > 100 µM
- TGI [16]: > 100 µM
- TGI [6]: 45.6 µM
- TGI [7]: 37.7 µM
- TGI [8]: > 100 µM
- TGI [9]: 43.9 µM
- TGI [10]: 79.9 µM
- TGI [11]: 28.8 µM
- TGI [12]: 48.9 µM
- TGI [13]: > 100 µM
- TGI [14]: 62.3 µM
- TGI [15]: > 100 µM

Compound: CC(=O)C1C(=O)C(=O)N(c2ccc([N+](=O)[O-])cc2[N+](=O)[O-])C1=O (stereo not given)
- TGI [1]: > 100 µM
- TGI [2]: > 100 µM
- TGI [3]: > 100 µM
- TGI [4]: > 100 µM
- TGI [5]: > 100 µM
- TGI [6]: > 100 µM
- TGI [7]: > 100 µM
- TGI [8]: > 100 µM
- TGI [9]: > 100 µM
- TGI [10]: > 100 µM
- TGI [11]: > 100 µM
- TGI [12]: > 100 µM
- TGI [13]: > 100 µM
- TGI [14]: > 100 µM
- TGI [15]: > 100 µM

Compound: O=C1NC(=O)C(CCC(=O)c2cccc3ccccc23)C(=O)N1
- TGI [17]: > 100 µM
- TGI [1]: > 100 µM
- TGI [3]: > 100 µM
- TGI [4]: > 100 µM
- TGI [5]: > 100 µM
- TGI [16]: > 100 µM
- TGI [6]: > 100 µM
- TGI [7]: > 100 µM
- TGI [8]: > 100 µM
- TGI [9]: > 100 µM
- TGI [10]: > 100 µM
- TGI [11]: > 100 µM
- TGI [12]: > 100 µM
- TGI [13]: > 100 µM
- TGI [14]: > 100 µM
- TGI [15]: > 100 µM

Compound: O=C1C(Cl)C(c2ccccc2Cl)N1n1cnc2ccccc2c1=O (stereo not given)
- TGI [1]: > 100 µM
- TGI [2]: > 100 µM
- TGI [3]: > 100 µM
- TGI [4]: > 100 µM
- TGI [5]: > 100 µM
- TGI [16]: > 100 µM
- TGI [6]: > 100 µM
- TGI [7]: > 100 µM
- TGI [8]: > 100 µM
- TGI [9]: > 100 µM
- TGI [10]: > 100 µM
- TGI [11]: 68.4 µM
- TGI [12]: > 100 µM
- TGI [13]: > 100 µM
- TGI [14]: > 100 µM
- TGI [15]: 73.2 µM

Compound: CCOc1ccc(N(CC(=O)N2CC(=O)Nc3cc(C)c(C)cc32)C(C)=O)cc1
- TGI [1]: > 100 µM
- TGI [2]: > 100 µM
- TGI [3]: > 100 µM
- TGI [4]: > 100 µM
- TGI [5]: > 100 µM
- TGI [16]: > 100 µM
- TGI [6]: > 100 µM
- TGI [7]: > 100 µM
- TGI [8]: > 100 µM
- TGI [9]: > 100 µM
- TGI [10]: > 100 µM
- TGI [11]: > 100 µM
- TGI [12]: > 100 µM
- TGI [13]: > 100 µM
- TGI [14]: > 100 µM
- TGI [15]: > 100 µM

Compound: COc1cc(C2c3cc4c(cc3OC(NNC(N)=S)C2C)OCO4)cc(OC)c1OC (stereo not given)
- TGI [17]: 34.7 µM
- TGI [1]: 36.3 µM
- TGI [3]: 18.7 µM
- TGI [4]: > 80.7 µM
- TGI [5]: > 100 µM
- TGI [16]: > 100 µM
- TGI [7]: > 57.6 µM
- TGI [8]: > 100 µM
- TGI [9]: > 100 µM
- TGI [10]: 0.884 µM
- TGI [11]: > 100 µM
- TGI [12]: > 100 µM
- TGI [13]: > 100 µM
- TGI [14]: > 100 µM
- TGI [15]: 60.1 µM

Compound: CC(=O)NC1=NC(=O)/C(=C/c2ccccc2Cl)N1C
- TGI [1]: > 100 µM
- TGI [2]: > 100 µM
- TGI [3]: > 100 µM
- TGI [4]: > 100 µM
- TGI [5]: > 100 µM
- TGI [6]: > 100 µM
- TGI [7]: > 100 µM
- TGI [8]: > 100 µM
- TGI [9]: > 100 µM
- TGI [10]: > 100 µM
- TGI [11]: > 100 µM
- TGI [12]: > 100 µM
- TGI [13]: > 100 µM
- TGI [14]: > 100 µM
- TGI [15]: > 100 µM
